Measured values taken from article PMC4821188 (Biological chemistry, 2010).
Several values for one entry are separate records, joined by “and”; a condition that tells them apart may be missing. Equal entries are not always repeated.

Assays:
Recombinant human furin [1] = target: T1, Recombinant human furin (Homo sapiens, UniProt P09958); assay type: biochemical; settings: for Km / kcat / kcat/Km: pH 7
Kex2 = target: T2, Kex2 (Saccharomyces cerevisiae, UniProt P13134); assay type: biochemical, S. cerevisiae; settings: in the absence of Mg^2+
T2 sequence (P13134 114-613 limits assumed): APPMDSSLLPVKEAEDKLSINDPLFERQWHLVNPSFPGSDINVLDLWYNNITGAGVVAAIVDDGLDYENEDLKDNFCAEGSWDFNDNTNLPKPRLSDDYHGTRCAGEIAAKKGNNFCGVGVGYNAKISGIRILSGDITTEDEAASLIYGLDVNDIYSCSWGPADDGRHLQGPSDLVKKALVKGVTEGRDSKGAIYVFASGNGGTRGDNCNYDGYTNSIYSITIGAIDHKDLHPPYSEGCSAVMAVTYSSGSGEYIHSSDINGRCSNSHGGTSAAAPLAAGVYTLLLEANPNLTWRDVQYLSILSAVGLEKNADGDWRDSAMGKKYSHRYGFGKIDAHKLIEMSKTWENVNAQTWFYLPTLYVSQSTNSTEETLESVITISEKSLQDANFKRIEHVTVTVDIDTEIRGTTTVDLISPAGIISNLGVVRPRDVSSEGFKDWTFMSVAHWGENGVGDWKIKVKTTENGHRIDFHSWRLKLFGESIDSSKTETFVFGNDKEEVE

Recombinant human furin [2] = target: T1, Recombinant human furin; assay type: biochemical; settings: 4 μM substrate; 10 mM MES, 1 mM CaCl2, 0.01% Triton X-100, pH 7.0, 36.5 °C

T1 sequence (P09958 108-715 limits assumed): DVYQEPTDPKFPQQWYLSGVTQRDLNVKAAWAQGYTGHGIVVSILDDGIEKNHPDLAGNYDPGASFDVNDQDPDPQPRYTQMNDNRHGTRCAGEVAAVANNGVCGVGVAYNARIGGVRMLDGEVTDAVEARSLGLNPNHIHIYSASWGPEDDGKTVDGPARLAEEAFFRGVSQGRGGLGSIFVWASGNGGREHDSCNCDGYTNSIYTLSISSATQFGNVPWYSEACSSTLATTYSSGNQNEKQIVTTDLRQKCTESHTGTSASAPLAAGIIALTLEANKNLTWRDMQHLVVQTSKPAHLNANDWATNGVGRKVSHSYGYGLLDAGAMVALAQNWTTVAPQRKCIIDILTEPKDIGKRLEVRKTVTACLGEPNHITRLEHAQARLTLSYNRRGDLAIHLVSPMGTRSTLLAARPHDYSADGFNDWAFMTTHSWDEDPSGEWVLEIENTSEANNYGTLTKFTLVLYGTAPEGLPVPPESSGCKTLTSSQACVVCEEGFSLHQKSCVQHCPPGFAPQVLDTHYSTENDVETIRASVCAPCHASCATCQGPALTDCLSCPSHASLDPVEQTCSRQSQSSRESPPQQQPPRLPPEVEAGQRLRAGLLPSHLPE

RRRDKR↓SVAL [compound 15]
R: relative kcat/Km values in presence vs. absence of MgCl2 (Recombinant human furin [1]): 0.8 | Km (Recombinant human furin [1]): 0.41 µM and 0.39 µM | kcat (Recombinant human furin [1]): 12.2 (14.6) s^−1 | kcat/Km (Recombinant human furin [1]): 29658 (37505) (mM.s)^−1

GQRKKR↓ALDT [compound 40]
R: relative kcat/Km values in presence vs. absence of MgCl2 (Recombinant human furin [1]): 0.06 | kcat (Recombinant human furin [1]): 3.6 (3.9) s^−1 | kcat/Km (Recombinant human furin [1]): 829 (14130) (mM.s)^−1

RRRKKR↓SLSG [compound 47]
R: relative kcat/Km values in presence vs. absence of MgCl2 (Recombinant human furin [1]): 14 | kcat (Recombinant human furin [1]): 4.5(0.92) s^−1 | kcat/Km (Recombinant human furin [1]): 18833 (1333) (mM.s)^−1

SRRKRR↓DVTP [compound 6]
R: relative kcat/Km values in presence vs. absence of MgCl2 (Recombinant human furin [1]): 3.2 | kcat (Recombinant human furin [1]): 9.9 (9.2) s^−1 | kcat/Km (Recombinant human furin [1]): 66000 (20467) (mM.s)^−1

RRRKKR↓SLFG [compound 46]
R: relative kcat/Km values in presence vs. absence of MgCl2 (Recombinant human furin [1]): 54 | kcat (Recombinant human furin [1]): 7.6 (1.0) s^−1 | kcat/Km (Recombinant human furin [1]): 33043 (606) (mM.s)^−1

QIRAKR↓ELSK [compound 2]
R: relative kcat/Km values in presence vs. absence of MgCl2 (Recombinant human furin [1]): 6.9 | kcat (Recombinant human furin [1]): 6.7 (9.7) s^−1 | kcat/Km (Recombinant human furin [1]): 5583 (808) (mM.s)^−1

SRRSRR↓SLTV [compound 12]
kcat (Recombinant human furin [1]): 6.2 (4.3) s^−1 | kcat/Km (Recombinant human furin [1]): 15923 (5328) (mM.s)^−1

Abz-GIRRKRSVSHQ-EDDnp [compound 19]
R: relative kcat/Km values in presence vs. absence of MgCl2 (Recombinant human furin [1]): 0.9 | Km (Recombinant human furin [1]): 0.42 µM and 0.39 µM | kcat (Recombinant human furin [1]): 29.6 (30.3) s^−1 | kcat/Km (Recombinant human furin [1]): 70547 (77100) (mM.s)^−1

TRRFRR↓SITE [compound 34]
R: relative kcat/Km values in presence vs. absence of MgCl2 (Recombinant human furin [1]): 1.3 | Km (Recombinant human furin [1]): 0.53 µM and 0.58 µM | kcat (Recombinant human furin [1]): 19.8 (16.4) s^−1 | kcat/Km (Recombinant human furin [1]): 37358 (28362) (mM.s)^−1

LKRRRR↓DTQQ [compound 30]
R: relative kcat/Km values in presence vs. absence of MgCl2 (Recombinant human furin [1]): 0.6 | kcat (Recombinant human furin [1]): 6.7 (0.61) s^−1 | kcat/Km (Recombinant human furin [1]): 1303 (2184) (mM.s)^−1

Abz-RERRRKKR↓GLFG-Q-EDDnp [peptide 48]
R: relative kcat/Km values in presence vs. absence of MgCl2 (Recombinant human furin [1]): 79 | kcat (Recombinant human furin [1]): 12.3(2.6) s^−1 | kcat/Km (Recombinant human furin [1]): 123000 (1555) (mM.s)^−1

KKRKRR↓FLGF [compound 33]
R: relative kcat/Km values in presence vs. absence of MgCl2 (Recombinant human furin [1]): 4.2 | kcat (Recombinant human furin [1]): 1.1 (0.64) s^−1 | kcat/Km (Recombinant human furin [1]): 2173 (512) (mM.s)^−1

Abz-YKR↓EAD-Q-EDDnp
kcat/Km for hydrolysis by kex2 (Kex2): 7.939e+06 M⁻¹ s⁻¹

LRRRRR↓DAGN [compound 25]
R: relative kcat/Km values in presence vs. absence of MgCl2 (Recombinant human furin [1]): 9.9 | Km (Recombinant human furin [1]): 3.6 µM and 3.3 µM | kcat (Recombinant human furin [1]): 12.3 (1.1) s^−1 | kcat/Km (Recombinant human furin [1]): 3455 (348) (mM.s)^−1

RNRQKR↓FVLS [compound 42]
Km (Recombinant human furin [1]): 0.59 µM | kcat (Recombinant human furin [1]): 0.20 s⁻¹ | kcat/Km (Recombinant human furin [1]): 337 mM/s

HRRDKR↓SVAL [compound 17]
R: relative kcat/Km values in presence vs. absence of MgCl2 (Recombinant human furin [1]): 0.6 | kcat (Recombinant human furin [1]): 12.7 (9.5) s^−1 | kcat/Km (Recombinant human furin [1]): 23091 (36615) (mM.s)^−1

SIRHKR↓EPSV [compound 20]
R: relative kcat/Km values in presence vs. absence of MgCl2 (Recombinant human furin [1]): 0.9 | Km (Recombinant human furin [1]): 2.4 µM and 2.8 µM | kcat (Recombinant human furin [1]): 1.6 (2.1) s^−1 | kcat/Km (Recombinant human furin [1]): 646 (729) (mM.s)^−1

HRRQKR↓SVAL [compound 14]
R: relative kcat/Km values in presence vs. absence of MgCl2 (Recombinant human furin [1]): 1.2 | Km (Recombinant human furin [1]): 0.37 µM and 0.28 µM | kcat (Recombinant human furin [1]): 14.9 (9.2) s^−1 | kcat/Km (Recombinant human furin [1]): 40270 (32431) (mM.s)^−1

Abz-SGRSRRAIDLQ-EDDnp [peptide 10]
R: relative kcat/Km values in presence vs. absence of MgCl2 (Recombinant human furin [1]): 3.0 | kcat (Recombinant human furin [1]): 6.2 (4.3) s^−1 | kcat/Km (Recombinant human furin [1]): 15923 (5328) (mM.s)^−1

THRTRR↓STSD [compound 24]
R: relative kcat/Km values in presence vs. absence of MgCl2 (Recombinant human furin [1]): 11 | Km (Recombinant human furin [1]): 1.9 µM and 1.2 µM | kcat (Recombinant human furin [1]): 8.1 (0.44) s^−1 | kcat/Km (Recombinant human furin [1]): 4128 (370) (mM.s)^−1

SKRSRR↓SVSV [compound 13]
R: relative kcat/Km values in presence vs. absence of MgCl2 (Recombinant human furin [1]): 1.5 | Km (Recombinant human furin [1]): 0.49 µM and 0.41 µM | kcat (Recombinant human furin [1]): 18.3 (10.5) s^−1 | kcat/Km (Recombinant human furin [1]): 37347(25362) (mM.s)^−1

Abz-LDKR↓EAE-Q-EDDnp
kcat/Km for hydrolysis by kex2 (Kex2): 353000 M⁻¹ s⁻¹

NLRRRR↓DLVD [compound 28]
R: relative kcat/Km values in presence vs. absence of MgCl2 (Recombinant human furin [1]): 7.2 | kcat (Recombinant human furin [1]): 3.5 (2.0) s^−1 | kcat/Km (Recombinant human furin [1]): 10606 (1470) (mM.s)^−1

[Cl-].[Na+] [NaCl]
effect on the rate of hydrolysis of Abz-[…]-Q-EDDnp by furin (Recombinant human furin [2]): no effect
